Data: the NIST ThermoML archive (doi:10.1016/j.jct.2014.07.019)

Test: xn = mol fraction of the nth substance listed
Conditions: 100 kPa, Liquid; for mass density: Vibrating tube method; for speed of sound: Frequency=3 MHz, Sing-around technique in a fixed-path interferometer

CCCCOCC(C)O (stereo not given) [1-butoxy-2-propanol] + CCCO
Conditions | mass density, 303.15 K [kg/m3] | mass density, 308.15 K [kg/m3] | mass density, 313.15 K [kg/m3] | speed of sound, 308.15 K [m/s] | speed of sound, 313.15 K [m/s]
x1 = 0.0573 | 804.905 | 800.798 | 796.651 | 1180.4 | 1164.1
x1 = 0.1001 | 810.658 | 806.519 | 802.334 | 1185.4 | 1169
x1 = 0.1558 | 817.667 | 813.493 | 809.279 | 1191.3 | 1174.7
x1 = 0.2031 | 822.949 | 818.753 | 814.513 | 1195.7 | 1179.1
x1 = 0.2532 | 828.091 | 823.867 | 819.599 | 1199.8 | 1183.1
x1 = 0.3033 | 832.749 | 828.501 | 824.211 | 1203.5 | 1186.7
x1 = 0.4046 | 841.013 | 836.72 | 832.382 | 1209.6 | 1192.7
x1 = 0.5048 | 847.934 | 843.623 | 839.27 | 1214.4 | 1197.2
x1 = 0.6055 | 853.82 | 849.452 | 845.054 | 1218.2 | 1201
x1 = 0.7052 | 858.839 | 854.443 | 850.006 | 1221.1 | 1203.8
x1 = 0.807 | 863.298 | 858.874 | 854.415 | 1223.4 | 1206.2
x1 = 0.8546 | 865.165 | 860.735 | 856.272 | 1224.2 | 1206.6
x1 = 0.9041 | 867.019 | 862.582 | 858.113 | 1225 | 1207.4
x1 = 0.9537 | 868.704 | 864.265 | 859.772 | 1225.6 | 1208.1
x1 = 1 | 870.204 | 865.737 | 861.241 | 1224.9 | 1207
